The text below walks through data of DBAASP.

Among the test systems are Escherichia coli C25; Escherichia coli MG1655; Vibrio cholerae; Staphylococcus aureus MR.
Holding throughout (test): ≥ marks a high value that may be exact or a test limit, other limits are often not marked, values filed in µg/mL are converted to µM
Test [1] has as its system Acinetobacter baumannii ATCC 17978D-5.
Test [2] deals with Enterococcus faecium ATCC 700221.
Test [3] deals with Klebsiella aerogenes ATCC 13048.
For test [4], the system named is Pseudomonas aeruginosa ATCC 19660.
Test [5] relates to Pseudomonas aeruginosa ATCC 27853.
Test [6] concerns Staphylococcus aureus ATCC 33591.
The subject of test [7] is Staphylococcus epidermidis ATCC 51625.
The subject of test [8] is Streptococcus pneumoniae ATCC 49619.
In test [9] the test system is Staphylococcus aureus ATCC 25923.
In test [10] the test system is Bacillus subtilis MTCC 14416.
The subject of test [11] is Enterococcus faecalis ATCC 29212.
Test [12] deals with Staphylococcus aureus ATCC 43300.
Test [13] deals with Staphylococcus aureus MTCC 9542.
Test [14] concerns Escherichia coli ATCC 25922.
Test [15] relates to Pseudomonas aeruginosa 21328.
Test [16] concerns Pseudomonas aeruginosa 25349.
The subject of test [17] is Pseudomonas aeruginosa CICC 10419.
Test [18] relates to Pseudomonas aeruginosa CICC 11411.
The subject of test [19] is Pseudomonas aeruginosa CICC 11421.
The test system of test [20] is Pseudomonas aeruginosa CICC 11431.
Test [21] concerns Pseudomonas aeruginosa CICC 21625.
Test [22] deals with Pseudomonas aeruginosa CICC 21630.
Test [23] relates to Staphylococcus aureus ATCC 29213.
Test [24] has as its system Candida albicans ATCC 5314.

In brackets after ≈: the same amount, converted by molar mass.

As a reminder, the MIC is the least concentration at which growth counts as inhibited. A low value points to greater potency. With `C[C@H](NC(=O)[C@H](Cc1ccccc1)NC(=O)[C@H](C)NC(=O)[C@@H](N)Cc1ccccc1)C(=O)N[C@@H](Cc1ccccc1)C(=O)N[C@@H](C)C(=O)N[C@@H](Cc1ccccc1)C(=O)N[C@@H](CCCCN)C(=O)N[C@@H](CCCCN)C(=O)N[C@@H](C)C(=O)N[C@@H](Cc1ccccc1)C(=O)N[C@@H](CCCCN)C(=O)N[C@@H](CCCCN)C(=O)N[C@@H](Cc1ccccc1)C(=O)N[C@@H](CCCCN)C(=O)N[C@@H](CCCCN)C(=O)N[C@@H](C)C(=O)N[C@@H](Cc1ccccc1)C(=O)N[C@@H](CCCCN)C(=O)N[C@@H](CCCCN)C(=O)N[C@@H](C)C(=O)N[C@@H](Cc1ccccc1)C(=O)O` [FAFAFAFKKAFKKFKKAFKKAF], the MIC in test [1] is 0.755 µM (≈ 2 µg/mL); in [2], 3.02 µM (≈ 8 µg/mL); in test [3], 24.2 µM (≈ 64 µg/mL); in test [4], 24.2 µM (≈ 64 µg/mL); in [5] it was over 24.2 µM; in test [6] it was 6.04 µM (≈ 16 µg/mL). The MIC in [7] came out at 1.51 µM (≈ 4 µg/mL); in test [8], 24.2 µM (≈ 64 µg/mL).

Turning to `CC[C@H](C)[C@H](NC(=O)CNC(=O)[C@H](CCCN=C(N)N)NC(=O)[C@H](Cc1ccc(O)cc1)NC(=O)[C@@H](NC(=O)[C@H](CCCN=C(N)N)NC(=O)[C@H](Cc1ccccc1)NC(=O)[C@H](Cc1c[nH]c2ccccc12)NC(=O)[C@H](CCCCN)NC(=O)[C@@H](N)CCCCN)C(C)C)C(=O)N[C@@H](Cc1ccc(O)cc1)C(=O)N[C@@H](CCCN=C(N)N)C(=O)N[C@@H](CCCN=C(N)N)C(=O)N[C@@H](CCCN=C(N)N)C(N)=O` [KKWFRVYRGIYRRR], the MIC with Escherichia coli C25 is at least 63 µM; in [9], 16 µM (≈ 31.7 µg/mL).

With `CC[C@H](C)[C@@H]1NC(=O)[C@H](CCCCN)NC(=O)[C@@H](NC(=O)[C@H](CC(C)C)NC(=O)[C@@H](NC(=O)[C@H](CCC(N)=O)NC(=O)[C@@H]2CCCN2C(=O)[C@H](CC(C)C)NC(=O)[C@H](Cc2ccccc2)NC(=O)[C@H](CC(N)=O)NC(=O)[C@H](C)NC(=O)[C@H](C)NC(=O)[C@H](CC(C)C)NC(=O)CNC(=O)[C@H](C)NC(=O)[C@@H](NC(=O)[C@@H](N)Cc2c[nH]c3ccccc23)[C@@H](C)CC)[C@@H](C)CC)CSSC[C@@H](C(N)=O)NC(=O)[C@H](CCCCN)NC(=O)[C@H](CCCN=C(N)N)NC(=O)[C@H](C)NC1=O` [WIAGLAANFLPQILCKIARKC], the minimal inhibitory concentration (MIC) in test [10] was 21.5 µM (≈ 49.9 µg/mL); in test [11] it was 21.5 µM (≈ 49.9 µg/mL); in the test with Escherichia coli MG1655 it was at least 42.9 µM; in [5], over 42.9 µM; in [12], 10.7 µM (≈ 25 µg/mL); in test [13], 5.37 µM (≈ 12.5 µg/mL). For the same compound, the MIC against Vibrio cholerae amounted to 10.7 µM (≈ 25 µg/mL).

Turning to `NC(=O)[C@H](Cc1c[nH]c2ccccc12)NC(=O)[C@H](CCCN=C(N)N)NC(=O)[C@H](CCCN=C(N)N)NC(=O)[C@H](Cc1c[nH]c2ccccc12)NC(=O)[C@H](CCCN=C(N)N)NC(=O)[C@H](CCCN=C(N)N)NC(=O)[C@H](CCCN=C(N)N)NC(=O)[C@H](Cc1c[nH]c2ccccc12)NC(=O)[C@H](CCCN=C(N)N)NC(=O)[C@H](CCCN=C(N)N)NC(=O)[C@H](CCCN=C(N)N)NC(=O)[C@H](Cc1c[nH]c2ccccc12)NC(=O)[C@H](CCCN=C(N)N)NC(=O)[C@H](CCCN=C(N)N)NC(=O)[C@@H](N)Cc1c[nH]c2ccccc12` [WRRWRRRWRRRWRRW], the MIC was 12.7 µM (≈ 32 µg/mL) in [14]; at least 102 µM in test [15]; 12.7 µM (≈ 32 µg/mL) in test [16]; 1.59 µM (≈ 4 µg/mL) in [5]; at least 102 µM in test [17]; at least 102 µM in test [18]. Besides, the MIC in test [19] was at least 102 µM; in [20], 3.19 µM (≈ 8 µg/mL); in test [21] it was at least 102 µM; in [22], 6.37 µM (≈ 16 µg/mL); in test [23], 6.37 µM (≈ 16 µg/mL).

For the compound `CC[C@H](C)[C@H](NC(=O)[C@@H](NC(=O)[C@H](CCCN=C(N)N)NC(=O)[C@H](Cc1ccccc1)NC(=O)[C@@H](N)Cc1ccc(O)cc1)[C@@H](C)O)C(=O)N[C@@H](CCCN=C(N)N)C(=O)N[C@@H](CCCN=C(N)N)C(=O)N[C@@H](Cc1ccccc1)C(=O)N[C@@H](Cc1ccccc1)C(=O)N[C@@H](CCCCN)C(=O)N[C@@H](CCCCN)C(=O)N[C@@H](CC(C)C)C(=O)N[C@@H](Cc1ccccc1)C(=O)N[C@@H](CCCCN)C(=O)N[C@H](C(=O)N[C@@H](CC(C)C)C(=O)N[C@@H](CCCCN)C(=O)N[C@@H](CCCCN)C(N)=O)[C@@H](C)O` [YFRTIRRFFKKLFKTLKK], the MIC (in test [24]; in [9]; against Staphylococcus aureus MR) was 26.4 µM (≈ 64 µg/mL) throughout.
